Data published in patent US12030876B2, “Aryl hydrocarbon receptor (AHR) agonists and uses thereof” (Ikena Oncology, Inc., priority 2019, dated 2024).
Read-outs that look alike come from different tables or passages of the source.

How the values were obtained:
AHR [1] = target: T1, AHR (Mus musculus, UniProt P30561); experiment: P450 CYP1A1 Luciferase Assay, Hepa1.6 (agonist); type: cell-based, murine; conditions: Hepa1.6, Table 2
T1 sequence (P30561 1-848 F348L/P471L): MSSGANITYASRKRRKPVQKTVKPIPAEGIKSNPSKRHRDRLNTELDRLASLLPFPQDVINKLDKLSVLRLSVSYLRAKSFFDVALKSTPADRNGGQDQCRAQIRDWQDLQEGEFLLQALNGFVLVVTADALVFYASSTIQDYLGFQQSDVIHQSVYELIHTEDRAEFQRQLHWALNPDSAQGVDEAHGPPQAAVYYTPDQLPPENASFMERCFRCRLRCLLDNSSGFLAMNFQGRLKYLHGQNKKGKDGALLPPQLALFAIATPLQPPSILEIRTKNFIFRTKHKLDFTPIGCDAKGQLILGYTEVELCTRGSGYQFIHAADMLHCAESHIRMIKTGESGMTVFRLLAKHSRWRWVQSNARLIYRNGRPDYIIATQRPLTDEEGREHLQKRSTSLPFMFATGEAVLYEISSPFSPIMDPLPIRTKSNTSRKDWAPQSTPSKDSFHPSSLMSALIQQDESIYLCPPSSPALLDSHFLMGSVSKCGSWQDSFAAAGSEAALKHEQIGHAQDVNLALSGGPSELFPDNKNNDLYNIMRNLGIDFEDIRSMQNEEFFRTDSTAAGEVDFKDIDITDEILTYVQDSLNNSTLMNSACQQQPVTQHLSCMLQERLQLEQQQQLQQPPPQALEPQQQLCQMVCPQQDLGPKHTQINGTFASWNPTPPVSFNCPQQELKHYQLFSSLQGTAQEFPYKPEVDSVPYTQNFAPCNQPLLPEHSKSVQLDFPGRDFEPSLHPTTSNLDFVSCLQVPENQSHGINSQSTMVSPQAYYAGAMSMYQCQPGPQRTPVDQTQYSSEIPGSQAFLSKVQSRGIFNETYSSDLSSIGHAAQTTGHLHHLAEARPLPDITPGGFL
Protocol: P450 CYP1A1 Luciferase Assay
AHR binds to Dioxin Responsive Elements (DRE) upstream of genes that it activates. One measure of AHR activity is P450 CYP1A1 protein levels determined by measuring CYP1A1 enzyme activity using a luminogenic CYP1A1 luciferin-based substrate. Luciferase activity will reflect CYP1A1 activity resulting from activation of AHR in the cells.
Murine Hepa1-6 or Hepa-1c1c7 or other murine cell line, human HepG2 or other human cell line are plated in media (96-well, 384-well or other plates) and incubated overnight at 37 C in a CO2 incubator.
(§1) The next day, an AHR agonist compound is added. Cells are incubated for 6, 16 or 24 hours or another time point and then lysed and incubated with a CYP1A1 luciferase-based substrate (e.g. Luciferin-CEE) for 3, 6, or 12 hours of another time point. Determination of luciferase activity as a read-out of CYP1A1 enzyme activity can be measured with a commercial kit such as the Promega P450 Glo CYP1A1 detection reagent or any kit or reagents that provide for measuring luciferase activity. The level of luciferase with only activating ligand (e.g. such as TCDD, kynurenine, ITE (2-(1H-indole-3-ylcarbonyl)-4-thiazolecarboxylic methyl ester), VAF347, BNF (beta-naphthoflavone), ICZ (6-formylindolo(3,2-b) carbazole or other AHR ligands) added is the maximum signal while the luciferase with no ligand is the minimum signal. EC50s can be determined as the concentration which activates half of the maximum luciferase activity.

AHR [2] = target: T2, AHR (Homo sapiens, UniProt P35869); experiment: DRE-Luciferase Reporter Assay, HepG2 (agonist); type: cell-based; conditions: read-out: DRE-Luc HepG2 - Agonist: Average EC50
T2 construct: endogenous in cells; host or cells: HepG2 (human), transfected with a DRE-luciferase reporter only
T2 sequence (P35869 11-848): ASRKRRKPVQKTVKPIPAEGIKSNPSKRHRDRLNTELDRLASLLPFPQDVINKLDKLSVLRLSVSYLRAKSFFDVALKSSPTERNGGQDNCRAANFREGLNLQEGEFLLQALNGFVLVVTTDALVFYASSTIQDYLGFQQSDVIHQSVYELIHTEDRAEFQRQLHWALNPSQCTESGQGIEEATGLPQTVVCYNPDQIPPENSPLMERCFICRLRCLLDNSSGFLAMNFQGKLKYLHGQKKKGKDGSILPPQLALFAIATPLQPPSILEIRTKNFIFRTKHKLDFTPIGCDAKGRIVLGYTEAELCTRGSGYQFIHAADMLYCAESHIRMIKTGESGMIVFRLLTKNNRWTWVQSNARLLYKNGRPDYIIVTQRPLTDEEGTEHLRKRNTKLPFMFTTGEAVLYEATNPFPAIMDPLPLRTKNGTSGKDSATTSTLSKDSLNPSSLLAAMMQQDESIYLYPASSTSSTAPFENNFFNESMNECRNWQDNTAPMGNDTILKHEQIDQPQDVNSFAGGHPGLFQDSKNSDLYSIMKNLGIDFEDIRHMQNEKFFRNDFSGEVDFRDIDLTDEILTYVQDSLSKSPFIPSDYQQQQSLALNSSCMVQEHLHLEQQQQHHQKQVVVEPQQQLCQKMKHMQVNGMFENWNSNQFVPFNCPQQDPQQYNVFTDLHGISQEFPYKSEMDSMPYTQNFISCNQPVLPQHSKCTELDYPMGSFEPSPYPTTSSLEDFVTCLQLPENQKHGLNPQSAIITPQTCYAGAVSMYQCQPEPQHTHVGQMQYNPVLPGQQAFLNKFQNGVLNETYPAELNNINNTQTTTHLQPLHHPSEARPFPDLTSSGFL
Protocol: (§2) DRE-Luciferase Reporter Assay
(§3) AHR binds to Dioxin Responsive Elements (DRE) upstream of genes that it activates. One measure of AHR activity is activation of a reporter gene, such as luciferase, downstream of one or multiple DRE elements. Luciferase activity reflects activation and inhibition of AHR in the cells expressing this reporter.
(§4) Murine Hepa1-6 or Hepa-1c1c7 or other murine cell line with a DRE-luciferase reporter either stably or transiently transfected are plated in media in plates (96-well, 384-well or other plates) and incubated overnight at 37 C in a CO2 incubator. Likewise, human HepG2 or other human cell line with a DRE-luciferase reporter either stably or transiently transfected are plated in media in plates (96-well, 384-well or other plates) and incubated overnight at 37 C in a CO2 incubator.
as §1, with “lysed” for “lysed and incubated with a CYP1A1 luciferase-based substrate (e.g. Luciferin-CEE)”, “determination” for “3, 6, or 12 hours of another time point. Determination”, “the AHR activation. Luciferase” for “CYP1A1 enzyme activity”, “Luciferase kit” for “P450 Glo CYP1A1 detection reagent”, “provide the luciferin substrate” for “provide”

AHR [3] = target: T1, AHR; experiment: DRE-Luciferase Reporter Assay, Hepa1.6 (agonist); type: cell-based, murine; conditions: Hepa1.6, Table 3; read-out: DRE-Luc Hepa1.6 - Agonist: Average EC50
Protocol: as §2, §3, §4
as §1, with “lysed” for “lysed and incubated with a CYP1A1 luciferase-based substrate (e.g. Luciferin-CEE)”, “determination” for “3, 6, or 12 hours of another time point. Determination”, “the AHR activation. Luciferase” for “CYP1A1 enzyme activity”, “Luciferase kit” for “P450 Glo CYP1A1 detection reagent”, “provide the luciferin substrate” for “provide”

EC50 (AHR [1]) [nM] | EC50 (AHR [2]; HepG2, Table 2) [nM] | EC50 (AHR [3]) [nM] | EC50 (AHR [2]; HepG2, Table 3) [nM] | Structure (SMILES)
> 1000 | < 10 | – | – | FC(F)(F)c1ccc(Nc2nc(-c3cccc(Cl)c3)cs2)cc1 [I-21]
100 to 1000 | < 10 | – | – | NC(=O)c1cccc(-c2csc(Nc3cccc(C(F)(F)F)c3)n2)c1 [I-22]
> 1000 | < 10 | – | – | FC(F)(F)c1cccc(Nc2nc(-c3ccc4cc[nH]c4c3)cs2)c1 [I-23]
> 1000 | 10 to 100 | – | – | C[N+](C)(C)CCCNC(=O)N(c1cccc(C(F)(F)F)c1)c1nc(-c2cccc(Cl)c2)cs1 [I-24]
> 1000 | 10 to 100 | – | – | N#Cc1cccc(Nc2nc(-c3cccc(Cl)c3)cs2)c1 [I-25]
> 1000 | 10 to 100 | – | – | C[N+](C)(CCO)CCCNC(=O)N(c1cccc(C(F)(F)F)c1)c1nc(-c2cccc(Cl)c2)cs1 [I-26]
> 1000 | 10 to 100 | – | – | Cc1sc(Nc2cccc(C(F)(F)F)c2)nc1-c1cccc(Cl)c1 [I-27]
> 1000 | 10 to 100 | – | – | C[N+]1(CCNC(=O)N(c2cccc(C(F)(F)F)c2)c2nc(-c3cccc(Cl)c3)cs2)CCCCC1 [I-28]
100 to 1000 | 10 to 100 | – | – | C[N+](C)(C)CCCC(=O)N(c1cccc(C(F)(F)F)c1)c1nc(-c2cccc(Cl)c2)cs1 [I-29]
100 to 1000 | 10 to 100 | – | – | CN(C)c1cccc(-c2csc(Nc3cccc(C(F)(F)F)c3)n2)c1 [I-30]
> 1000 | 10 to 100 | – | – | C[N+](C)(CCO)CCOC(=O)N(c1cccc(C(F)(F)F)c1)c1nc(-c2cccc(Cl)c2)cs1 [I-31]
> 1000 | 10 to 100 | – | – | FC(F)(F)c1cccc(-c2csc(Nc3cccc(Cl)c3)n2)c1 [I-32]
> 1000 | 100 to 1000 | – | – | O=C(O)c1cccc(-c2csc(Nc3cccc(C(F)(F)F)c3)n2)c1 [I-33]
> 1000 | 100 to 1000 | – | – | C[N+](C)(C)CCC(=O)Nc1cccc(-c2csc(Nc3cccc(C(F)(F)F)c3)n2)c1 [I-34]
> 1000 | 100 to 1000 | – | – | FC(F)(F)Oc1cccc(-c2csc(Nc3cccc(C(F)(F)F)c3)n2)c1 [I-36]
> 1000 | 100 to 1000 | – | – | O=[N+]([O-])c1cccc(Nc2nc(-c3cccc(Cl)c3)cs2)c1 [I-38]

EC50 (AHR [1]) [nM] | EC50 (AHR [2]; HepG2, Table 2) [nM] | EC50 (AHR [3]) [nM] | EC50 (AHR [2]; HepG2, Table 3) [nM] | Structure (SMILES)
> 1000 | 100 to 1000 | – | – | CN(CCOCCN(c1cccc(C(F)(F)F)c1)c1nc(-c2cccc(Cl)c2)cs1)CC(=O)O [I-39]
> 1000 | 100 to 1000 | – | – | C[N+](C)(C)CCCC(=O)Nc1cccc(-c2csc(Nc3cccc(C(F)(F)F)c3)n2)c1 [I-40]
> 1000 | 100 to 1000 | – | – | C[N+](C)(CCO)CCCC(=O)N(c1cccc(C(F)(F)F)c1)c1nc(-c2cccc(Cl)c2)cs1 [I-42]
> 1000 | 100 to 1000 | – | – | O=C(c1cccc(-c2csc(Nc3cccc(C(F)(F)F)c3)n2)c1)N1CCOCC1 [I-43]
> 1000 | 100 to 1000 | – | – | N=C(N)c1cccc(-c2csc(Nc3cccc(C(F)(F)F)c3)n2)c1 [I-44]
> 1000 | > 1000 | – | – | COc1ccc(-c2csc(Nc3cccc(C(F)(F)F)c3)n2)cc1 [I-46]
> 1000 | > 1000 | – | – | C[N+](C)(C)CCNC(=O)Nc1cccc(-c2csc(Nc3cccc(C(F)(F)F)c3)n2)c1 [I-47]
> 1000 | > 1000 | – | – | CN1CCN(C(=O)c2cccc(-c3csc(Nc4cccc(C(F)(F)F)c4)n3)c2)CC1 [I-48]
> 1000 | > 1000 | – | – | O=[N+]([O-])c1ccccc1-c1csc(Nc2cccc(C(F)(F)F)c2)n1 [I-49]
> 1000 | > 1000 | – | – | CN(C)C(=O)c1cccc(-c2csc(Nc3cccc(C(F)(F)F)c3)n2)c1 [I-50]
> 1000 | > 1000 | – | – | C[N+]1(C)CCN(C(=O)c2cccc(-c3csc(Nc4cccc(C(F)(F)F)c4)n3)c2)CC1 [I-53]
> 1000 | < 10 | – | – | FC(F)(F)c1cccc(Nc2nc(-c3cccc(Cl)c3)ns2)c1 [I-58]
> 1000 | < 10 | – | – | FC(F)(F)c1cccc(Nc2ncc(-c3cccc(Cl)c3)o2)c1 [I-59]
> 1000 | 10 to 100 | – | – | FC(F)(F)c1cccc(Nc2cc(-c3cccc(Cl)c3)cs2)c1 [I-60]
> 1000 | 100 to 1000 | – | – | FC(F)(F)c1cccc(Nc2cc(-c3cccc(Cl)c3)cs2)c1 [I-61]
– | – | 100 to 1000 | < 10 | O=c1ccc(-c2csc(Nc3cccc(C(F)(F)F)c3)n2)c[nH]1 [I-83]
